One experiment deals with APOBEC3A (A3A) (Homo sapiens, UniProt P31941). In words: A3A deamination of ssDNA with homogeneously 5-modified cytosines (TA cloning assay). The format is biochemical. Conditions: 8 μM A3A, 37° C., two hours. The procedure: Single stranded DNA with homogenously modified cytosines was obtained by LATE-PCR as previously described (Schutsky et al. Nucleic Acids Res 2017). Modified triphosphates were obtained from TriLink unless otherwise noted here (mC: NEB, peC/pC: synthesized in house, purified by ion-pair chromatography, Ghanty et al. JACS 2018). 1 ng of purified single stranded DNA was incubated with 8 μM A3A at 37° C. for two hours. This 202 base pair amplicon was PCR amplified and TA cloned. Single clones were sent for Sanger Sequencing. After alignment to the parent 202mer substrate (Table 1), C to T conversions were quantified as a percentage of total Cs.
Sequence of APOBEC3A (A3A) (P31941 whole entry): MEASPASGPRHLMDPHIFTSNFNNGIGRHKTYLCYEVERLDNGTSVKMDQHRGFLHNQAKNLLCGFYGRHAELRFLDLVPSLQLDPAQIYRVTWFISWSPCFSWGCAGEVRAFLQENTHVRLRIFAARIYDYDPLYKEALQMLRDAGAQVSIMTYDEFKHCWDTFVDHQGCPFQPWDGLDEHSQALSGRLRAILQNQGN
To determine more exact parameters that define the discrimination as a function of sterics at the C5 position, we synthesized or obtained dxCTP analogs, with variable (x) 5-position substituents, and used established approaches to generate long ssDNA substrates with homogeneous C modifications (36). These substrates were reacted with A3A, reamplified and analyzed for deamination by restriction digestion at a specific site.

In a further experiment the test system is pUC19 plasmid DNA. The experiment in a line: pUC19 assay (in vitro transfer of SAM or CxSAM, HpaII/HhaI challenge).
The subject of experiment [1] is unmethylated phage gDNA CpG sites. In words: Amplicon sequencing of phage gDNA treated with M.MpeI N374K and SAM or CxSAM, then bisulfite or A3A.
The next experiment concerns plasmid DNA CpG sites. The class given is cell-based, E. coli.
In experiment [2] the test system is pMG81-M.MpeI plasmid CCGG sites. The following applies: in vivo, plasmid recovered after induced expression.
The test system of experiment [3] is E. coli genomic DNA CCWGG sites. In words: Nucleoside LC-MS/MS of genomic DNA after in vivo expression of Dcm variants. The following applies: dam-/dcm- E. coli, gDNA.

Regarding 5-propynyl-dC [5pyC], on APOBEC3A (A3A), the “deamination by A3A of ssDNA with all Cs replaced by the modified base” value was “undetectable levels of deamination”.
Consider “M.MpeI N374K: CpG M.MpeI Carboxymethyltransferase with a C-terminal His Tag, SEQ ID NO: 1 (lacks His tag) / SEQ ID NO: 2”, for which the “protection of pUC19 plasmid from restriction digestion” value in the experiment with pUC19 plasmid DNA (CxSAM substrate) was “newly gains the ability to transfer CxSAM”. Moreover, in the experiment with pUC19 plasmid DNA (SAM substrate), the “protection of pUC19 plasmid from restriction digestion” value is given as “transfers SAM less efficiently than the WT enzyme”. The “DNA newly resistant to A3A deamination” value in experiment [1] (CxSAM, A3A deamination) is given as ~ 50%. Further, in experiment [1] (CxSAM, bisulfite deamination), the “DNA modified as 5cxmC (cytosine calls at CpGs after bisulfite)” value is reported as ~ 50%. The “DNA newly modified to be 5mC (cytosine calls at CpGs after bisulfite)” value in experiment [1] (SAM, bisulfite deamination) was ~ 60%. For the same molecule, in the experiment with plasmid DNA CpG sites, the “change of 5cxmC signal in the added presence of the CmoA plasmid” value is reported as “an increase in 5cxmC signal”; the “in vivo plasmid carboxymethylation (5cxmC) by LC-MS/MS” value is “can be detected and lost”; the “level of 5cxmC modification across overexpression conditions” value is on record as “greatest level of 5cxmC modification”. In addition, the “HpaII and MspI digestion pattern of encoding plasmid” value in experiment [2] is given as “faint ~2 kB band resistant to MspI digestion”.

B1: WT Dcm: E. coli's naturally occurring DNA Cytosine Methyltransferase (Dcm) (protein, UniProt P0AED9 1-472, looked up)
DNA-cytosine methyltransferase: MQENISVTDSYSTGNAAQAMLEKLLQIYDVKTLVAQLNGVGENHWSAAILKRALANDSAWHRLSEKEFAHLQTLLPKPPAHHPHYAFRFIDLFAGIGGIRRGFESIGGQCVFTSEWNKHAVRTYKANHYCDPATHHFNEDIRDITLSHKEGVSDEAAAEHIRQHIPEHDVLLAGFPCQPFSLAGVSKKNSLGRAHGFACDTQGTLFFDVVRIIDARRPAMFVLENVKNLKSHDQGKTFRIIMQTLDELGYDVADAEDNGPDDPKIIDGKHFLPQHRERIVLVGFRRDLNLKADFTLRDISECFPAQRVTLAQLLDPMVEAKYILTPVLWKYLYRYAKKHQARGNGFGYGMVYPNNPQSVTRTLSARYYKDGAEILIDRGWDMATGEKDFDDPLNQQHRPRRLTPRECARLMGFEAPGEAKFRIPVSDTQAYRQFGNSVVVPVFAAVAKLLEPKIKQAVALRQQEAQHGRRSR
B1: in experiment [3], the “formation of 5cxmC in the native E. coli genome” value is recorded as “not” and the “methylation of cytosine (detection of 5mC)” value was “could methylate cytosine”.

B2: Dcm N436K: CCWGG Dcm Carboxymethyltransferase with a C-terminal His Tag, SEQ ID NO: 3 / SEQ ID NO: 4 (protein)
chain: MQENISVTDSYSTGNAAQAMLEKLLQIYDVKTLVAQLNGVGENHWSAAILKRALANDSAWHRLSEKEFAHLQTLLPKPPAHHPHYAFRFIDLFAGIGGIRRGFESIGGQCVFTSEWNKHAVRTYKANHYCDPATHHFNEDIRDITLSHKEGVSDEAAAEHIRQHIPEHDVLLAGFPCQPFSLAGVSKKNSLGRAHGFACDTQGTLFFDVVRIIDARRPAMFVLENVKNLKSHDQGKTFRIIMQTLDELGYDVADAEDNGPDDPKIIDGKHFLPQHRERIVLVGFRRDLNLKADFTLRDISECFPAQRVTLAQLLDPMVEAKYILTPVLWKYLYRYAKKHQARGNGFGYGMVYPNNPQSVTRTLSARYYKDGAEILIDRGWDMATGEKDFDDPLNQQHRPRRLTPRECARLMGFEAPGEAKFRIPVSDTQAYRQFGKSVVVPVFAAVAKLLEPKIKQAVALRQQEAQHGRRSRHHHHHH
modifications: C-terminal His tag; Dcm N436K with His tag
Turning to B2, in experiment [3], the “CCWGG sites carboxymethylated (5cxmC relative to total CCWGGs)” value is on record as over 1.5%, the “formation of 5cxmC in the native E. coli genome” value is “could catalyze the formation of 5cxmC” and the “methylation of cytosine (detection of 5mC)” value is listed as “could methylate cytosine”.
